Source: patent publication US20090181948A1, “DIAMINE DERIVATIVE” (KYOWA HAKKO KOGYO CO., LTD., priority 2005, published 2009)

biological target: T1, histamine H3 receptor (Rattus norvegicus, UniProt Q9QYN8); assay: Histamine H3 receptor binding assay ([3H]-Nα-methylhistamine binding to rat striatum homogenate); conditions: 1 μmol/L test compound; [3H]-Nα-methylhistamine 1 nmol/L; striata of Sprague-Dawley male rats, 25° C., 1 hour; read-out: Inhibition ratio of [3H]-Nα-methylhistamine binding
T1 construct: from tissue; host or cells: rat striatum (Sprague-Dawley, male, 6 weeks), membrane homogenate
T1 sequence (Q9QYN8 whole entry): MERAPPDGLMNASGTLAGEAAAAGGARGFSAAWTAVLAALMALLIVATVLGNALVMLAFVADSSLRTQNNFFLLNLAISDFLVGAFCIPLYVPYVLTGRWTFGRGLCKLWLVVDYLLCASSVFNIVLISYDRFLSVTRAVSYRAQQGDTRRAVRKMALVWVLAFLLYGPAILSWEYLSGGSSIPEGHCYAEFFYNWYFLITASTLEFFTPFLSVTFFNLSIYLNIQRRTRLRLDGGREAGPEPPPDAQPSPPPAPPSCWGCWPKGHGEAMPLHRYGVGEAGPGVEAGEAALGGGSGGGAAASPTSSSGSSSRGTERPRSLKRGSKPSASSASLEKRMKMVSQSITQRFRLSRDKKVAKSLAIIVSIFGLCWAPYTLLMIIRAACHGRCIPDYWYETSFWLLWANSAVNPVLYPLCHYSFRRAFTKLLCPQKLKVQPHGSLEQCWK
Procedure: To the striata of Sprague-Dawley male rats (6 weeks of age), a 10-fold volume of lysis buffer {50 mmol/L [[…] (Tris)]/HCl (pH 7.4), 5 mmol/L ethylenediaminetetraacetic acid (EDTA), a protease inhibitor mixture [1 mg/mL phenylmethylsulfonyl fluoride (PMSF), 1 μg/mL pepstatin A, 1 μg/mL leupeptin, 1 μg/mL chymostatin]} was added and the striata were homogenized. The resulting homogenate was centrifuged (30,000×g, 4° C., 30 min), and the obtained precipitate was resuspended in a 10-fold volume of lysis buffer, followed by centrifugation under the same condition. To the obtained precipitate, a 3-fold volume of lysis buffer was added to suspend the precipitate, and the resulting tissue homogenate was used for a test.
A test compound was dissolved in an assay buffer [50 mmol/L Tris/HCl (pH 7.4), 5 mmol/L EDTA], and [^3H]-N^α-methylhistamine (1 nmol/L) and the tissue homogenate (20 μg, in terms of protein amount) were added thereto, and then, the mixture was incubated at 25° C. for 1 hour. Then, the reaction was terminated by rapid suction filtration on a glass filter [GF/B: Whatman, previously soaked in 0.3 w/v % polyethylenimine for about 30 min]. Then, the glass filter was washed three times with 3 mL of assay buffer. This glass filter was transferred into a scintillation vial and dried at 60° C. for 30 minutes. Then, 0.5 mL of Ultimagold (Perkin Elmer) was added thereto, and the radioactivity (binding amount of [^3H]-N^α-methylhistamine) was measured using a liquid scintillation counter. The obtained value was used as a binding amount in the presence of the test compound. The same procedure as described above was carried out in the absence of the test compound, and the binding amount of [^3H]-N^α-methylhistamine obtained at this time was used as a binding amount in the absence of the test compound. Further, the binding amount of [^3H]-N^α-methylhistamine obtained in the presence of 10 μmol/L thioperamide was used as a non-specific binding amount. An inhibitory action of [^3H]-N^α-methylhistamine binding was represented by an inhibition ratio in terms of 1 μmol/L of the test compound calculated by the following Equation (1).
Inhibition ratio(%)={1−[(Binding amount in the presence of test compound)−(Non-specific binding amount)]/[(Binding amount in the absence of test compound)−(Non-specific binding amount)]}×100 (1)

Row | Compound | inhibition at 1 µM [%]
1 | CC1CCN(CCCN2CCN(CCCN3CC(C)CC(C)C3)C2=C(C#N)C#N)CC1 (stereo not shown) [Compound 106, {1-[3-(3,5-Dimethylpiperidino)propyl]-3-[3-(4-methylpiperidino)propyl]imidazolidin-2-ylidene}malononitrile] | ≥ 80
2 | N#CC(C#N)=C(NCCCN1CCCCC1)NCCCN1CCCCC1 [Compound 2, [Bis(3-piperidinopropylamino)methylene]malononitrile] | ≥ 80
3 | CCN(CC)CCN1CCN(CCCN2CCCCC2)C1=C(C#N)C#N [Compound 49, [1-(2-Diethylaminoethyl)-3-(3-piperidinopropyl)imidazolidin-2-ylidene]malononitrile] | ≥ 80
4 | N#CC(C#N)=C1N(CCCN2CCCCCC2)CCN1CCCN1CCCC1 [Compound 69, {1-[3-(Azepan-1-yl)propyl]-3-[3-(pyrrolidin-1-yl)propyl]imidazolidin-2-ylidene}malononitrile] | ≥ 80
5 | C[C@@H]1CCC[C@H](C)N1CCCN1CCN(CCN2CCCCC2)C1=C(C#N)C#N [Compound 50, {1-[3-(Cis-2,6-dimethylpiperidino)propyl]-3-(2-piperidinoethyl)imidazolidin-2-ylidene}malononitrile Difumarate] | ≥ 80
6 | CC1CCCN(CCCN2CCN(CCCN3CCCCC3)C2=C(C#N)C#N)C1 (stereo not shown) [Compound 99, {1-[3-(3-Methylpiperidino)propyl]-3-(3-piperidinopropyl)imidazolidin-2-ylidene}malononitrile] | ≥ 80
7 | CC1CCCN1CCCN1CCN(CCCN2CCN(C)CC2)C1=C(C#N)C#N (stereo not shown) [Compound 78, {1-[3-(4-Methylpiperazin-1-yl)propyl]-3-[3-(2-methylpyrrolidin-1-yl)propyl]imidazolidin-2-ylidene}malononitrile] | ≥ 80
8 | N#CC(C#N)=C1N(CCCN2CCC(C#N)CC2)CCN1CCN1CCCCC1 [Compound 40, {1-[3-(4-Cyanopiperidino)propyl]-3-(2-piperidinoethyl)imidazolidin-2-ylidene}malononitrile] | ≥ 80
9 | CCN(CC)CCCN1CCN(CCN2CCCCC2)C1=C(C#N)C#N [Compound 48, [1-(3-Diethylaminopropyl)-3-(2-piperidinoethyl)imidazolidin-2-ylidene]malononitrile] | ≥ 80
10 | CC1CCCN(CCCN2CCN(CCCN3CCOCC3)C2=C(C#N)C#N)C1 (stereo not shown) [Compound 80, {1-[3-(3-Methylpiperidino)propyl]-3-(3-morpholinopropyl)imidazolidin-2-ylidene}malononitrile] | ≥ 80
11 | N#CC(C#N)=C1N(CCCN2CCCCCC2)CCN1CCCN1CCCCCC1 [Compound 66, {1,3-Bis[3-(azepan-1-yl)propyl]imidazolidin-2-ylidene}malononitrile] | ≥ 80
12 | CC1CC(C)CN(CCCN2CCN(CCCN3C(C)CCCC3C)C2=C(C#N)C#N)C1 (stereo not shown) [Compound 108, {1-[3-(2,6-Dimethylpiperidino)propyl]-3-[3-(3,5-dimethylpiperidino)propyl]imidazolidin-2-ylidene}malononitrile] | ≥ 80
13 | CC1CC(C)CN(CCCN2CCN(CCCN3CC(C)CC(C)C3)C2=C(C#N)C#N)C1 (stereo not shown) [Compound 109, {1,3-Bis[3-(3,5-dimethylpiperidino)propyl]imidazolidin-2-ylidene}malononitrile] | ≥ 80
14 | CC1CCCN1CCCN1CCN(CCCN2CCOCC2)C1=C(C#N)C#N (stereo not shown) [Compound 85, {1-[3-(2-Methylpyrrolidin-1-yl)propyl]-3-(3-morpholinopropyl)imidazolidin-2-ylidene}malononitrile] | ≥ 80

More lines, now with the values ahead:

Row | inhibition at 1 µM [%] | Compound
15 | ≥ 80 | C[C@@H]1CCCN1CCN(C)C(=C(C#N)C#N)N1CCC(CN2CCCCC2)CC1 [Compound 151, ({N-methyl-N-[2-((R)-2-methylpyrrolidin-1-yl)ethyl]amino}(4-piperidinomethylpiperidino)methylene)malononitrile]
16 | ≥ 80 | CC1CCCN(CCCN2CCN(CCCN3CCCC3C)C2=C(C#N)C#N)C1 (stereo not shown) [Compound 112, {1-[3-(3-Methylpiperidino)propyl]-3-[3-(2-methylpyrrolidin-1-yl)propyl]imidazolidin-2-ylidene}malononitrile]
17 | ≥ 80 | CC(C)N1CCC(NC(=C(C#N)C#N)N2CCC(CN3CCCCC3)CC2)CC1 [Compound 178, [(1-Isopropylpiperidin-4-ylamino)(4-piperidinomethylpiperidino)methylene]malononitrile]
18 | ≥ 80 | CC1CCCN1CCCN1CCN(C2CCN(Cc3ccccc3)CC2)C1=C(C#N)C#N (stereo not shown) [Compound 127, {1-(1-Benzylpiperidin-4-yl)-3-[3-(2-methylpyrrolidin-1-yl)propyl]imidazolidin-2-ylidene}malononitrile]
19 | ≥ 80 | C[C@@H]1CCCN1CCCN1CCN(CCCN2CCC[C@H]2C)C1=C(C#N)C#N [Compound 116, {1,3-Bis[3-((R)-2-methylpyrrolidin-1-yl)propyl]imidazolidin-2-ylidene}malononitrile Difumarate]
20 | ≥ 80 | C[C@@H]1CCCN1CCCN1CCN(CCCN2CCC[C@@H]2C)C1=C(C#N)S(=O)(=O)c1ccccc1 [Compound 246, {1-[3-((S)-2-methylpyrrolidin-1-yl)propyl]-3-[3-((R)-2-methylpyrrolidin-1-yl)propyl]imidazolidin-2-ylidene}benzenesulfonylacetonitrile]
21 | ≥ 80 | CC1CCCN1CCCN1CCN(CCCN2CCCC2C)C1=O (stereo not shown) [Compound 141, 1,3-Bis[3-(2-methylpyrrolidin-1-yl)propyl]imidazolidine-2-one]
22 | ≥ 80 | CC1CCCN1CC1CCN(C(NCCN2CCCCC2)=C(C#N)C#N)CC1 (stereo not shown) [Compound 148, {[4-(2-Methylpyrrolidin-1-ylmethyl)piperidino](2-piperidinoethylamino)methylene}malononitrile]
23 | ≥ 80 | CC1CC(C)CN(CCCN2CCN(CCCN3CCCC3C)C2=C(C#N)C#N)C1 (stereo not shown) [Compound 110, {1-[3-(3,5-Dimethylpiperidino)propyl]-3-[3-(2-methylpyrrolidin-1-yl)propyl]imidazolidin-2-ylidene}malononitrile]
24 | ≥ 80 | CC1CCCN1CCCNC(=C(C#N)C#N)N1CCC(CN2CCCCC2)CC1 (stereo not shown) [Compound 173, {[3-(2-Methylpyrrolidin-1-yl)propylamino](4-piperidinomethylpiperidino)methylene}malononitrile]
25 | ≥ 80 | CC1CCCN1CCCN1CCN(CCCN2CCC(=O)CC2)C1=C(C#N)C#N (stereo not shown) [Compound 203, {1-[3-(2-Methylpyrrolidin-1-yl)propyl]-3-[3-(4-oxopiperidino)propyl]imidazolidin-2-ylidene}malononitrile]
26 | ≥ 80 | N#CCN1CCC(N2CCN(CCCN3CCCCC3)C2=C(C#N)C#N)CC1 [Compound 214, [1-(1-Cyanomethylpiperidin-4-yl)-3-(3-piperidinopropyl)imidazolidin-2-ylidene]malononitrile]
27 | ≥ 80 | CC(C)N1CCC(N2CCN(CCN3CCCCC3)C2=C(C#N)C#N)CC1 [Compound 207, [1-(1-Isopropylpiperidin-4-yl)-3-(2-piperidinoethyl)imidazolidin-2-ylidene]malononitrile]
28 | ≥ 80 | CC(C)N1CCC(CN2CCN(CCCN3CCCCC3)C2=C(C#N)C#N)CC1 [Compound 133, {1-[(1-Isopropylpiperidin-4-yl)methyl]-3-(3-piperidinopropyl)imidazolidin-2-ylidene}malononitrile]
